{"source": "patent US10112933B2", "about": "“Methods and compositions for treatment of fibrosis” (Baylor College of Medicine, priority 2013, dated 2018)", "key": {"[1]": {"test_system": "alveolar epithelial cells (MLE-12 and primary AEC)", "assay": "TGF-beta and IL-6/sIL-6R-alpha induced EMT of alveolar epithelial cells", "type": "cell-based", "description": "(§1) The role of STAT3 in EMT and myofibroblast differentiation was determined by using […]-9 in tissue culture experiments with alveolar epithelial cells (AEC; MLE-12 and primary AEC) and murine lung fibroblasts. […] […]-9 prevented TGF-beta and IL-6/sIL-6R-alpha induced EMT of AEC assessed by Col1a, alpha-SMA, Twist, and Snail mRNA levels and reduced myofibroblast differentiation as assessed by Col1a and alpha-SMA mRNA levels."}, "[2]": {"test_system": "skin fibrosis", "assay": "Subcutaneous bleomycin mouse model of skin fibrosis", "type": "in vivo", "conditions": "intraperitoneal treatment days 14-28 of the 4 week model", "description": "FIG. 20 illustrates an exemplary study design using a subcutaneous (SQ) bleomycin model for skin fibrosis. In a basic model, bleomycin is administered to wild type mice (C57/Bl6) via subcutaneous injection 5 days a week for a total of 4 weeks. PBS is used as a control for the bleomycin. Fibrosis is assessed in the biopsied skin on day 28. Fibrosis is assessed using histology (hematoxylin and eosin stain), where the dermal thickness is quantified as the average linear distance from the dermis-epidermis junction to the subQ muscle layer. Masson's trichrome staining is also performed to stain collagen blue. Immunohistochemistry is performed for alpha-smooth muscle actin, the marker of the myofibroblasts (cell that makes collagen during the process of fibrosis). Future endpoints are assessed including collagen content. To illustrate that STAT3 inhibitor is a useful therapy at least for dermal fibrosis, an example of a STAT3 inhibitor (C188-9) was given via the intraperitoneal route daily, starting in week 3 of the bleomycin model. DMSO was used as a control for the STAT3 inhibitor."}, "[3]": {"test_system": "murine lung fibroblasts", "assay": "Myofibroblast differentiation of lung fibroblasts", "type": "cell-based", "description": "as §1"}}}
{"smiles": "COc1ccc(S(=O)(=O)Nc2cc(-c3c(O)ccc4ccccc34)c(O)c3ccccc23)cc1", "note": "[C188-9, N-(1′,2-dihydroxy-1,2′-binaphthalen-4′-yl)-4-methoxybenzenesulfonamide]", "values": [{"measurement": "TGF-beta and IL-6/sIL-6R-alpha induced EMT of AEC (Col1a, alpha-SMA, Twist, Snail mRNA levels)", "setting": "[1]", "value": "prevented"}, {"measurement": "bleomycin-induced increase of dermal fibrotic gene expression (Acta2, Col1a1, Col1a2 transcripts), RT-PCR", "setting": "[2]", "value": "blunted"}, {"measurement": "myofibroblast differentiation (Col1a and alpha-SMA mRNA levels)", "setting": "[3]", "value": "reduced"}]}
